Laboratory results: the supplement of paper PMC12463676, “Small-molecule dissolution of stress granules by redox modulation benefits ALS models” (Nature Chemical Biology, 2025)

Columns and labels:
[1] = compound: O=[As]([O-])(O)O.[K+] [potassium arsenate]; experiment: thermal stability z-score vs DMSO; higher = more thermally stabilized by treatment; conditions: HeLa; arsenate concentration 1 mM
Experimental: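 Cellular thermal proteome profiling in HeLa cells treated with 1 mM arsenate for 1 h (DMSO pretreatment), heated to ten temperatures (37-66.3 °C). Soluble protein was quantified by TMT mass spectrometry relative to DMSO controls; the thermal stability score was transformed to a z-score; mean of n = 3 experiments.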

[2] = compound: NC(=O)CCCCC1CCSS1 [lipoamide]; experiment: as above; conditions: HeLa, lipoamide concentration 100 µM
Experimental: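 Cellular thermal proteome profiling in HeLa cells. Cells were treated with 100 µM lipoamide for 1 h, with or without 1 mM arsenate for a further 1 h, then heated to ten temperatures (37-66.3 °C), and soluble protein was quantified by TMT mass spectrometry relative to 0.1% DMSO controls. The thermal stability score (sum of log2 fold changes minus the abundance score) was transformed to a z-score; mean of n = 3 experiments.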

[3] = arsenate co-treatment: 1 mM arsenate 1 h
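Also: each temperature applied for 3 min, abundance score taken as mean log2 fold change at the two lowest temperatures, z-score obtained by mean subtraction and division by SD.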

Chain of UniProt Q9ULM6 (Q9ULM6 whole entry): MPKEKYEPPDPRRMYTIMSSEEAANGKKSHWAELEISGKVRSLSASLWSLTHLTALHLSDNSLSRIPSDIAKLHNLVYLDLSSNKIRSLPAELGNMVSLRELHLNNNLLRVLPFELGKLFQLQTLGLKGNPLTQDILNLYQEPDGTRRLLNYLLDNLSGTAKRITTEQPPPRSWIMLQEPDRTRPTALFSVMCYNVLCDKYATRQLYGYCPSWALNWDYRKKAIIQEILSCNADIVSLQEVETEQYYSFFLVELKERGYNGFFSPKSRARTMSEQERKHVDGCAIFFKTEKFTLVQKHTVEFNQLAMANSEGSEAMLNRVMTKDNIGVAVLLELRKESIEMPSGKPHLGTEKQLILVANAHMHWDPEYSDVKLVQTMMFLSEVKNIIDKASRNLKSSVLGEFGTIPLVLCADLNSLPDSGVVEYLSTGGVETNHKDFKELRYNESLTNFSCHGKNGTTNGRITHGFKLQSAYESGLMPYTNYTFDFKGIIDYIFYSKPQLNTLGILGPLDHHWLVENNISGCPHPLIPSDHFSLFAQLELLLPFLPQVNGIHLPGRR
Chain of UniProt P04920 (P04920 whole entry): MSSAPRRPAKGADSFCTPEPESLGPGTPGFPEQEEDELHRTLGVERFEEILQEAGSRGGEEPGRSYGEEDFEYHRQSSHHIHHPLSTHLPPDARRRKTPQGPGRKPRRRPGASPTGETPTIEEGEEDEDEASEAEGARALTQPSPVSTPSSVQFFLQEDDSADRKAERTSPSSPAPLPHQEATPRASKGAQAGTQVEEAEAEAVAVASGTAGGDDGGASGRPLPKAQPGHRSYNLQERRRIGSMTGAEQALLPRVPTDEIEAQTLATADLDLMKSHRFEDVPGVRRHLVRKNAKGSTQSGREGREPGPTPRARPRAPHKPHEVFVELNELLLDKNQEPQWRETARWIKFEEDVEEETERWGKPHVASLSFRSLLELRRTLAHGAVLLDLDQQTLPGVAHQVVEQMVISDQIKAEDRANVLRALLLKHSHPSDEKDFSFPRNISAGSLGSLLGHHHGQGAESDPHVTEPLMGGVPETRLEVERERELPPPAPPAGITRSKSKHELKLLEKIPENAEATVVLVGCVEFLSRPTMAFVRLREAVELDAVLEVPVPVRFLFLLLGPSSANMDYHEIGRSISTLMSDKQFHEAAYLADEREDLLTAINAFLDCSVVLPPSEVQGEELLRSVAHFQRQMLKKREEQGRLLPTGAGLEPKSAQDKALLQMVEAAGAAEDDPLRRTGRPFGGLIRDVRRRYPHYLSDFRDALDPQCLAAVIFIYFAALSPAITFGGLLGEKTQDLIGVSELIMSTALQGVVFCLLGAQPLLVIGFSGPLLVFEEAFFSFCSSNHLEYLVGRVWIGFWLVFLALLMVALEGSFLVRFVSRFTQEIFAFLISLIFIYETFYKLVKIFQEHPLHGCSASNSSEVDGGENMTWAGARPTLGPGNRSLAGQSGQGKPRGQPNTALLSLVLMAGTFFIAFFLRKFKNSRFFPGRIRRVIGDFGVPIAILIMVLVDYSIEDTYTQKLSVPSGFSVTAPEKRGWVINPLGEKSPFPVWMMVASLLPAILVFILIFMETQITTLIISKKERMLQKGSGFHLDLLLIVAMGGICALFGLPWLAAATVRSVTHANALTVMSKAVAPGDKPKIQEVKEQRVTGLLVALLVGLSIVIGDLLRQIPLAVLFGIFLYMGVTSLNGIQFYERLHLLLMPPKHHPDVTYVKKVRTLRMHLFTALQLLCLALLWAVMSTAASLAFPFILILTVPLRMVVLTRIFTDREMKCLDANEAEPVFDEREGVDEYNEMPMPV
Chain of UniProt Q96GG9 (Q96GG9 whole entry, looked up): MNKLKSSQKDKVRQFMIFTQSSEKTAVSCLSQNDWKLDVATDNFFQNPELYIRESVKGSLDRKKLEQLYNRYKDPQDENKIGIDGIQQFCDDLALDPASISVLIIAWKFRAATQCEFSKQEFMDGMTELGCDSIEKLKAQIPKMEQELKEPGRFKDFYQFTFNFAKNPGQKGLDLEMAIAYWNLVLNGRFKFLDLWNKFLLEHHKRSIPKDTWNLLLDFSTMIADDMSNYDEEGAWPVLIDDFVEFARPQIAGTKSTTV
Chain of UniProt P62253 (P62253 whole entry): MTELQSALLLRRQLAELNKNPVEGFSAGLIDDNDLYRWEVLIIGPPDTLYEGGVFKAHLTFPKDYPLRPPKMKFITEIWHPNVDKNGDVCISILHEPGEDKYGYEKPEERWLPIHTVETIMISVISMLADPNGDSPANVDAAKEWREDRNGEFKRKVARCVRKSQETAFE
Chain of UniProt Q13309 (Q13309 whole entry): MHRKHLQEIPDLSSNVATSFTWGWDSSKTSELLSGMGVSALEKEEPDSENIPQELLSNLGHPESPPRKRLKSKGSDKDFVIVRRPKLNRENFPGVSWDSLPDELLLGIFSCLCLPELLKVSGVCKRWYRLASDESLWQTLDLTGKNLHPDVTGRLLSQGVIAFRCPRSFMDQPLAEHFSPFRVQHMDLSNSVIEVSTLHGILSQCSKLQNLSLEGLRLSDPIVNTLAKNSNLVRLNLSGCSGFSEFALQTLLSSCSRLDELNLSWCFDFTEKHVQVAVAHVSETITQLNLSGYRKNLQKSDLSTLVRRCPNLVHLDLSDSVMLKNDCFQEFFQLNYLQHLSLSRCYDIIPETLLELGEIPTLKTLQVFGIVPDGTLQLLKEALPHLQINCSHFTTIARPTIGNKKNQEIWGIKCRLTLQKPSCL
Chain of UniProt Q86XK3 (Q86XK3 whole entry): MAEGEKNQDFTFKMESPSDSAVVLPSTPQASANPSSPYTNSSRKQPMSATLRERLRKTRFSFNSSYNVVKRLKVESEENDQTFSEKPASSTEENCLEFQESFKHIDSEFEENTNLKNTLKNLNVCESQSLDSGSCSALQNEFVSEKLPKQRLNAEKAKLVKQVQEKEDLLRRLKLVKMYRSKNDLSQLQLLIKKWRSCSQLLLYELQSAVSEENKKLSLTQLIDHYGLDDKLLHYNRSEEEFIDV
Chain of UniProt O94913 (O94913 whole entry): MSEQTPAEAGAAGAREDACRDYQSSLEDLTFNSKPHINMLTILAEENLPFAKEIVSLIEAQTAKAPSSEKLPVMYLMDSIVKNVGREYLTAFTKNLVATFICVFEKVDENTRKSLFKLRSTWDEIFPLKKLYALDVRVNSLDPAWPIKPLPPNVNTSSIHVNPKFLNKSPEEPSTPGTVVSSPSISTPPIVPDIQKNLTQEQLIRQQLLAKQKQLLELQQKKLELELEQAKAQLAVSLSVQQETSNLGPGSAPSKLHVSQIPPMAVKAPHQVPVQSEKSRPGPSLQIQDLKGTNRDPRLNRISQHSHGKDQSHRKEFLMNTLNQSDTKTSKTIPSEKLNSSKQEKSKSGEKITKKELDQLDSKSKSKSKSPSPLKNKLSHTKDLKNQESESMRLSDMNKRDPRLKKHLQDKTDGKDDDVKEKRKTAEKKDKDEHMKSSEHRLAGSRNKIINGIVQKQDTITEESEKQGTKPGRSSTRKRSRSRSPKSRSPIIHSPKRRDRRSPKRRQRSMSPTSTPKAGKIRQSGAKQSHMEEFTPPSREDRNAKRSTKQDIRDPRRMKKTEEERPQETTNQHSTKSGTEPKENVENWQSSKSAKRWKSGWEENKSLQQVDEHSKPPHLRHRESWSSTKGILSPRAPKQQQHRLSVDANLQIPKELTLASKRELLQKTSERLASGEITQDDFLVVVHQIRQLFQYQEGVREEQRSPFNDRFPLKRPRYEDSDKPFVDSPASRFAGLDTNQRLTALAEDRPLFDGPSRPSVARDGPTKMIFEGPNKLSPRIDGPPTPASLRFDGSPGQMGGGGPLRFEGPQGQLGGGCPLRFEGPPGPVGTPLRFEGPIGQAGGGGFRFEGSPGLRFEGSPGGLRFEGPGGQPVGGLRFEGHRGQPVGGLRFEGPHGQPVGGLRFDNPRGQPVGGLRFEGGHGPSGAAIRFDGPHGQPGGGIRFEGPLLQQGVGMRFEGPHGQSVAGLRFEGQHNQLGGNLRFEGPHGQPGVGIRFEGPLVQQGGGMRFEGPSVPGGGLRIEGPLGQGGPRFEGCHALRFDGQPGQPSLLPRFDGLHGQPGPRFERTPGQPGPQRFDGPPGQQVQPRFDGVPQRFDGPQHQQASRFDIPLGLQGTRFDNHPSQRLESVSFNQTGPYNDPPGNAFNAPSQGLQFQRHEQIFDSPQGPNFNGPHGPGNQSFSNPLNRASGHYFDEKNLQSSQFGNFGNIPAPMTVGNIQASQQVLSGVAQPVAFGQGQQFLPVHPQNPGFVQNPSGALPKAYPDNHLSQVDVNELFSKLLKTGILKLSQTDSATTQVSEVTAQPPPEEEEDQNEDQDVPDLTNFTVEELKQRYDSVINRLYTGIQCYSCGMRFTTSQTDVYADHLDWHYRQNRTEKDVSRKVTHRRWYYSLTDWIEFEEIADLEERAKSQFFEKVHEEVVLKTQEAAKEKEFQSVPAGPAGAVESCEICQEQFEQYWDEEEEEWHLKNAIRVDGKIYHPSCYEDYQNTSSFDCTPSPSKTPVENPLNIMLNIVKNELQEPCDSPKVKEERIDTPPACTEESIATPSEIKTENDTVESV
Chain of UniProt P48163 (P48163 whole entry): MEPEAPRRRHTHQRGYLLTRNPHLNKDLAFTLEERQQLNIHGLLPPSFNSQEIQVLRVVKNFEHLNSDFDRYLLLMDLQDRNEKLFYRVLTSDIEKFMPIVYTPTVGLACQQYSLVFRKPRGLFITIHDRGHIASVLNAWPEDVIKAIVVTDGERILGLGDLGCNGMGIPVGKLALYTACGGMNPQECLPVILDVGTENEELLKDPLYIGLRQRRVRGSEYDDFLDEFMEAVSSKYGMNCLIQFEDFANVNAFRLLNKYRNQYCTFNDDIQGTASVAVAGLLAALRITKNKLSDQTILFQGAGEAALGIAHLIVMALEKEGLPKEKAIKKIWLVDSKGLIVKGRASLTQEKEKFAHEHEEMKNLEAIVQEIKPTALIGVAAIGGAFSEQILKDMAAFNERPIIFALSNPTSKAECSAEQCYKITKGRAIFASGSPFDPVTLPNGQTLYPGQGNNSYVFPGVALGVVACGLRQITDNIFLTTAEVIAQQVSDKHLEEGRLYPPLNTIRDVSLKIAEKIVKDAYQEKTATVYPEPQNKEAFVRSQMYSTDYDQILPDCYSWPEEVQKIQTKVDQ

Target	thermal stability z-score [1]	thermal stability z-score [2, 3]	thermal stability z-score ([2]; arsenate co-treatment: none)
PYM1 (UniProt Q9BRP8)	-0.578	0.618	-0.287
ZC2HC1A (UniProt Q96GY0)	-1.15	0.178	-0.306
THOC6 (UniProt Q86W42)	0.429	0.337	0.402
STAM (UniProt Q92783)	-0.0683	-0.258	0.0211
CRIP1 (UniProt P50238)	1.18	1.49	1.68
SEC61B (UniProt P60468)	0.265	0.911	0.44
RDH14 (UniProt Q9HBH5)	1.53	1.25	0.852
SFR1 (UniProt Q86XK3)	0.036	-0.12	-0.359
HSPB1 (UniProt P04792)	0.246	-1.04	-0.459
SKP2 (UniProt Q13309)	-0.872	-0.219	-0.122
GATB (UniProt O75879)	0.0266	0.0276	0.115
DYNC1LI1 (UniProt Q9Y6G9)	0.463	-0.18	-0.1
TRMT61B (UniProt Q9BVS5)	-0.271	-1.22	-0.842
RNF4 (UniProt P78317)	-0.192	-1.23	-0.848
UBE2F (UniProt Q969M7)	-0.224	-0.0267	-0.0251
ZFR (UniProt Q96KR1)	-0.37	0.561	0.0288
SMG9 (UniProt Q9H0W8)	-0.274	-0.596	-0.49
NUMA1 (UniProt Q14980)	-1.48	0.34	0.207
UBE2G1 (UniProt P62253)	0.0592	0.288	0.286
AKIRIN2 (UniProt Q53H80)	0.307	0.0163	-0.00376
UniProt F5GYJ5	0.166	0.464	0.437
PSMD7 (UniProt P51665)	-0.475	-0.802	-0.0777
CNOT6 (UniProt Q9ULM6)	0.03	-0.197	-0.108
TTC33 (UniProt Q6PID6)	-0.664	0.242	0.0666
RAD17 (UniProt O75943)	-0.848	-0.324	-0.278
MPZL1 (UniProt O95297)	0.179	0.0579	0.206
USP19 (UniProt O94966)	-0.0515	0.774	-0.193
GTF3C4 (UniProt Q9UKN8)	-1.21	0.237	0.0733

Target	thermal stability z-score [1]	thermal stability z-score [2, 3]	thermal stability z-score ([2]; arsenate co-treatment: none)
KMT2D (UniProt O14686)	-0.661	-0.298	-0.455
LIG4 (UniProt P49917)	-0.107	-0.146	0.0757
ZFYVE9 (UniProt O95405)	-0.021	-0.0978	-0.0701
ABHD6 (UniProt Q9BV23)	-0.179	-1.6	-1.07
RAF1 (UniProt P04049)	-0.0609	-0.142	0.126
GTF2H2|GTF2H2C	-0.166	0.00796	-0.0811
ME1 (UniProt P48163)	-0.207	0.408	0.575
TIMP2 (UniProt P16035)	0.923	-0.833	-0.411
RAP1GAP2 (UniProt Q684P5)	0.124	1.12	0.923
PCF11 (UniProt O94913)	-0.0822	-0.0765	-0.00889
CDC123 (UniProt O75794)	3.29	0.8	-0.214
SLC4A2 (UniProt P04920)	0.173	0.115	0.433
FAM114A1 (UniProt Q8IWE2)	0.106	-0.474	-0.338
HK1 (UniProt P19367)	0.159	0.339	0.466
NUP188 (UniProt Q5SRE5)	0.426	-0.451	-0.512
DCUN1D1 (UniProt Q96GG9)	0.0368	-0.437	-0.535
ITGA2 (UniProt P17301)	0.278	0.217	0.235
TXNDC9 (UniProt O14530)	0.0909	-0.0714	-0.127
PSMD12 (UniProt O00232)	-0.133	-0.0164	0.0811
MRPS33 (UniProt Q9Y291)	0.00906	0.0616	0.0342
ZGPAT (UniProt Q8N5A5)	-0.307	-0.303	-0.13
MTFR1 (UniProt Q15390)	0.165	-0.301	0.52
MTOR (UniProt P42345)	0.0121	0.00431	0.137
PTGS2 (UniProt P35354)	0.269	-0.361	0.261
HNRNPA1 (UniProt P09651)	-1.94	-1.06	-1.24
SLC25A20 (UniProt O43772)	-0.0934	2.62	0.0858
EIF4A2 (UniProt Q14240)	0.658	1.14	0.893
